The test system of assay [1] is CML cells (32Dp210-GFP cells). Kind of assay: Chronic myelogenous leukemia model mice, imatinib and compound c (Experimental Example 12). Format: in vivo. As to the method: Chronic myelogenous leukemia model mice prepared in the same manner as in Experimental Example 11 were divided into the following 3 groups (each group: n=10), and the groups were administered respective test drugs in accordance with the protocol shown in FIG. 15A.
(§1) Group 1: placebo group (physiological saline was administered via gavage)
(§2) Group 2: imatinib group (imatinib [150 mg/kg/day] was administered via gavage)
(§3) Group 3: imatinib+compound c group (imatinib [150 mg/kg/day] and compound c [10 mg/kg/day] were administered via gavage)
8 days (day 8) after the day on which CML cells (32Dp210-GFP cells) were intravenously inoculated (day 0), administration of the test drugs to the groups was started. The placebo group and the imatinib group were administered the respective test drugs once a day from day 8 to day 14 (7 doses in total). The imatinib+compound c group was administered imatinib once a day from day 8 to day 14 (7 doses in total), and also administered compound c once a day from day 8 to day 14 (7 doses in total).

The test system of assay [2] is CML cells. The experiment in a line: Chronic myelogenous leukemia model mice, CML cells engrafted onto bone marrow by FACS (Experimental Example 15). Format: in vivo. As to the method:
Chronic myelogenous leukemia model mice prepared in accordance with the procedure of Experimental Example 11 (1) were divided into 3 groups (each group: n=15) and administered respective test drugs.
as §1, §2, §3
8 days (day 8) after the day on which CML cells were intravenously inoculated (day 0), administration of test drugs to the groups was started. The placebo group and the imatinib group were administered the respective test drugs once a day from day 8 to day 14 (7 doses in total). The imatinib+compound c group was administered imatinib once a day from day 8 to day 14 (7 doses in total), and also administered compound c once a day from day 8 to day 14 (7 doses in total).
CML cells engrafted onto bone marrow were analyzed by FACS immediately before the administration of a test drug (day 8; “immediately before antitumor agent treatment” in FIG. 19), immediately after the completion of administration of a test drug (day 14; “immediately after antitumor agent treatment” in FIG. 19), and day 28 from the start of administration of a test drug (day 36; “after 28 days” in FIG. 19). […] About 50% leukemia cells were grafted on the bone marrow immediately before administration of a test drug (day 8; “immediately before antitumor agent treatment” in FIG. 19). After the tumor-bearing mice were administered a test drug 7 times (day 14), the proportion of CML cells was analyzed. […] All of the mice in the group administered physiological saline died.

The target of another assay is human PAI-1 (Homo sapiens, UniProt P05121). Kind of assay: Measurement of PAI-1 inhibitory activity of compound group 1 (t-PA, S-2288 chromogenic substrate). The note with it: read-out: PAI-1 activity %.
In assay [3] the test system is CML cells. Kind of assay: Chronic myelogenous leukemia model mice, compound a alone, imatinib, combination (Experimental Example 16). Format: in vivo. The note with it: day 10 to day 16. As to the method:
as §1
Group 2: compound a group (compound a [100 mg/kg/day] was administered via gavage)
Group 3: imatinib group (imatinib [150 mg/kg/day] was administered via gavage)
Group 4: imatinib+compound a group (imatinib [150 mg/kg/day] and compound a [100 mg/kg/day] were administered via gavage)
10 days after (day 10) the day on which CML cells were intravenously inoculated (day 0), administration of test drugs to the groups was started. The placebo group, the compound a group, and the imatinib group were administered the respective test drugs once a day from day 10 to day 16 (7 doses in total). The imatinib+compound a group was administered imatinib once a day from day 10 to day 16 (7 doses in total), and also administered compound a once a day from day 10 to day 16 (7 doses in total).

Assay [4] has as its system hematopoietic stem cells. Kind of assay: Hematopoietic recovery after total-body radiation (9Gy) and bone-marrow transplantation (Experimental Example 4). Format: in vivo, C57BI6/J mice. The method, then:
Specifically, C57BI6/J mice (recipient), which were wild-type inbred strain mice, were treated with total-body radiation (9Gy), and four hours later, bone-marrow cells were transplanted into the mice. Concurrently with the transplantation, compound a was administered to the mice as a test compound via oral gavage (dosage 100 mg/kg), and compound a was daily administered orally for 5 consecutive days (administered group).
The survival rate of the mice after bone-marrow transplantation was tracked over time (each group: n=15).
Bone-marrow cells collected from the mice (administered group and control group) 7 days after bone-marrow transplantation were measured for the presence of Lin-SLAM cells with a flow cytometric analyzer (see FIG. 5A). Each test was independently conducted (each group: n=6).
The proportion (%) of Lin-SLAM cells in the whole bone marrow, the total number of Lin-SLAM cells in the bone marrow, the proportion (%) of LSK-CD34 negative cells in the bone marrow, and the total number of LSK-CD34 negative cells in the bone marrow were measured.
The bone-marrow cells collected from the mice (administered group, control group) 7 days after bone-marrow transplantation were measured for the plasminogen (Plg) mRNA expression level, tPA mRNA expression level, and PAI-1 mRNA expression level.
Bone marrow was collected from the mice (administered group and control group) 13 weeks after bone-marrow transplantation, and the following was measured: the total number of whole bone marrow (FIG. 7A), the proportion (%) of LSK-CD34 negative cells in the whole bone marrow (FIG. 7B), the total number of CD34(−)KSL cells in the whole bone marrow (FIG. 7C), the proportion (%) of Lin-SLAM cells in the whole bone marrow (FIG. 7D), the total number of Lin-SLAM cells in the whole bone marrow (FIG. 7E), the proportion (%) of bone marrow differentiated cells (CD45.1/Mac1/Gr1 cell) in the whole bone marrow (FIG. 7F), the total number of bone marrow differentiated cells (CD45.1/Mac1/Gr1 cell) in the whole bone marrow (FIG. 7G), the proportion (%) of B-cell lymphoid differentiated cells (CD45.1/B 220 cell) in the whole bone marrow (FIG. 7H), and the total number of B cell lymphoid differentiated cells (CD45.1/B 220 cell) in the whole bone marrow (FIG. 7I). The results are shown in the above-stated figures.

Assay [5] relates to hematopoietic stem cells. The experiment in a line: Frequency and absolute number of hematopoietic stem cells after bone-marrow transplantation (Experimental Example 8 (1)). Format: in vivo, mice. The note with it: 1 and 3 weeks after bone-marrow transplantation. As to the method: In accordance with the procedure of Experimental Example 7 (1), bone marrow was transplanted, and tPA or compound a was administered in the same manner as in Experimental Example 7. Physiological saline was administered to a control group. 1 and 3 weeks after bone-marrow transplantation, 12 mice of each group were measured for the number of bone-marrow mononucleic cells (BM MNC), the frequency and absolute number of Lin-SLAM cells, and the frequency and absolute number of LSK-CD34 negative cells.

[6] abbreviates: 100 mg/kg oral gavage, 5 consecutive days, days 2, 7, 21 after bone-marrow transplantation, versus vehicle control.
The mark [7] stands for this setting: 100 mg/kg oral, 7 days after bone-marrow transplantation.

Sequence of human PAI-1 (P05121 24-402): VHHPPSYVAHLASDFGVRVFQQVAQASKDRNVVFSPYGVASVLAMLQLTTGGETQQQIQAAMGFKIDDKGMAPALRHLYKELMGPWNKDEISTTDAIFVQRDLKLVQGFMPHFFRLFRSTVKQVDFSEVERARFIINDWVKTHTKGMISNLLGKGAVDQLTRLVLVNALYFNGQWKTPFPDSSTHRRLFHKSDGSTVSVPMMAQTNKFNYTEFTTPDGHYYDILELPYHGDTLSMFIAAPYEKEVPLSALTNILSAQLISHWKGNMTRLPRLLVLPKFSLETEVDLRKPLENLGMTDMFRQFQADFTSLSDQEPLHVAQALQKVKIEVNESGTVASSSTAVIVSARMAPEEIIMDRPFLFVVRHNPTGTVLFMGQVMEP
Experimental for human PAI-1: Subsequently, human-derived tissue plasminogen activator (t-PA) (manufactured by American Diagnostica, Inc. (USA); the same applies hereinafter) adjusted to 0.35 pmol/μL was added thereto, and the mixture was further incubated at 37° C. for 15 minutes.

As to `O=C(Nc1ccc(Cl)cc1C(=O)O)c1cccc(-c2ccccc2)c1` [Example 4, 2-[(biphenyl-3-ylcarbonyl)amino]-5-chlorobenzoic acid], the “survival rate on day 40” value in assay [1] (imatinib 150 mg/kg/day + compound c 10 mg/kg/day via gavage, day 8 to day 14) stood at 70%. Further, the median survival period in assay [1] (imatinib 150 mg/kg/day + compound c 10 mg/kg/day, placebo 15.5 days) amounted to 40 days. In the assay with CML cells [2] (imatinib 150 mg/kg/day + compound c 10 mg/kg/day, day 8 to day 14, analysed day 36), the “CML (leukemia) cells in the bone marrow” value turned out to be 1.8%. In addition, the “proportion of CML cells in the bone marrow” value with CML cells [2] (imatinib + compound c, day 14, after 7 doses, about 50% before treatment) is “marked decrease”. At human PAI-1, the activity at 20 µM turned out to be 47.7% and the activity at 50 µM was found to be 7.6%.

As to `O=C(COCC(=O)N1CCN(C(c2ccccc2)c2ccccc2)CC1)Nc1ccc(Cl)cc1C(=O)[O-].[Na+]` [Example 30 (compound group 2), 2-(2-(2-(4-benzhydrylpiperazin-1-yl)-2-oxoethoxy)acetamido)-5-chlorobenzoic acid sodium salt], in the assay on CML cells [3] (compound a 100 mg/kg/day alone, all of the subject mice, as placebo), the survival entry is given as “died during the period from day 10 to day 20”. The “survival rate on day 50” value in the assay with CML cells [3] (imatinib 150 mg/kg/day + compound a 100 mg/kg/day via gavage) is reported as 60%. Further, in the assay on hematopoietic stem cells [4] (setting [6]), the “cKitL level in plasma” value was “significantly higher”, the “plg level in plasma” value is on record as “significantly higher”, the “tPA level in plasma” value is reported as “significantly higher” and the “total MMP-9 level in plasma” value is on record as “significantly higher”. Moreover, the “white blood cell count in the peripheral blood” value in the assay on hematopoietic stem cells [4] (setting [6]) is recorded as “significantly higher”. Also, the “survival rate of the mice after bone-marrow transplantation” value in the assay with hematopoietic stem cells [4] (100 mg/kg oral, concurrently with transplantation and 5 consecutive days, versus control group) is reported as “significantly higher”. For the same compound, the “whole bone marrow cell number; proportion and total number of LSK-CD34 negative cells, Lin-SLAM cells, bone marrow differentiated cells, B-cell lymphoid differentiated cells” value with hematopoietic stem cells [4] (100 mg/kg oral, 13 weeks after bone-marrow transplantation, versus vehicle control) is “significantly higher”. In the assay with hematopoietic stem cells [4] (setting [7]), the “frequency of hematopoietic stem cells (Lin-SLAM cells, LSK-CD34 negative cells in bone marrow)” value is on record as “increases”; the “mRNA expression of plasminogen, tissue-type plasminogen activator, and plasminogen activator inhibitor 1 in bone marrow” value is reported as “induces”. Also, in the assay on hematopoietic stem cells [5], the “LSK-CD34 negative cells (frequency and absolute number)” value is given as “markedly increased”; the “frequency and absolute number of Lin-SLAM cells” value was “markedly increased”. Also, the “number of bone-marrow mononucleic cells” value in the assay with hematopoietic stem cells [5] (compared with control group) is “significantly increased”.

The record behind these values is US10092537B2, “Use for PAI-1 inhibitor” (RENASCIENCE CO., LTD., priority 2013, dated 2018).
